Patent publication US10160771B2, “Hepatitis C virus inhibitors and uses thereof in preparation of drugs” (priority 2014, dated 2018)

Columns and labels:
[1] = test system: HCV genotype 1a (HCV-1a) replicon cells; assay: HCV genotype 1a replicon luciferase assay (EC50); assay type: cell-based, hepatitis C virus genotype 1a (H77 clone); details: 3 days, luciferase (Bright-Glo)
Outline: (§1)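 Stable subgenomic replicon cells (1a: H77 with K1691R, K2040R, S2204I; 1b: Con1 with E1202G, T1280I, K1846T) carrying luciferase and neo were seeded at 8000 cells/well onto compounds (5-fold, 6-point, top 100, 10 or 1 nM; 0.5% DMSO) for 3 days at 37 °C. Bright-Glo luminescence gave EC50 by nonlinear fit.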

[2] = Cell Titer-fluor cell activity assay in HCV-1b replicon cells (CC50); assay type: cell-based
Procedure: The EC50 and CC50 values of anti-HCV compounds were determined by HCV genotype 1a (HCV-1a) and 1B (HCV-1b) stable transfer replication (replicon) cells. The source of genotype 1a replicon is H77 clones containing K1691R, K2040R and S2204I adaptive mutations. The source of genotype 1b replicon is Con1 clones containing E1202G, T1280I and K1846T adaptive mutations.
HCV Replicon Cell Lines: HCV-1a and HCV-1b Cells
The compound powder was dissolved in 100% DMSO. Then the compound was diluted 5 times with 6 points, and added into the cell plate with Echo liquid handler. Ensure the final concentration of DMSO was 0.5%. Each compound was tested in double holes. Maximum initial concentration was 100, 10 or 1 nM, 5 times dilution, 6 points.
b) Cell Culture (HCV-1a or HCV-1b Replicon Cell):
1) absorbing the culture supernatant of the cell culture and washing the cells with 10 mL PBS.
2) adding preheated pancreatin to the washed cell culture flasks, rotating culture bottle to make the bottom of the culture bottle uniformly covered by pancreatin, then placed into 37° C., 5% CO2 incubator to digest.
3) suspending cells in each T150 culture flask with 10-15 mL culture medium, absorbing 0.1 mL liquid and diluting 2 times by trypan blue solution as counted.
4) diluting cells to 8×10^4/mL with the culture medium, adding the diluted cells into the compound-containing 96-well plate (Greiner, Cat.#655090) (100 μL/well, 8000 cells/well) with automatic liquid separator (Thermo Scientific). Then place into a 37° C., 5% CO2 incubator for 3 days. Cell control well: no compound, only containing 0.5% DMSO.
5) adding chemiluminescent substrate Cell Titer-fluor to the cell well, after incubation for 30 minutes, detecting the signal by chemiluminescence detection system Envison (Ex at 405 nm and read at 515 nm). The effect of the compounds on the activity of HCV replicon cells was analyzed according to the luminescence data, which was used to calculate the CC50 values.
The EC50 or CC50 values were obtained by nonlinear fitting analysis on inhibition percentage (inh %) data with GraphPad Prism software.

[3] = test system: HCV genotype 1b (HCV-1b) replicon cells; assay: HCV genotype 1b replicon luciferase assay (EC50); assay type: cell-based, hepatitis C virus genotype 1b (Con1 clone); details: 3 days, luciferase (Bright-Glo)
Outline: as §1

Question: Which EC50 ([1]; Hepatitis C virus, 72 h) does the source give for `COC(=O)N[C@H](C(=O)N1CCC[C@H]1c1ccc(-c2ccc(-c3ccc(-c4cnc([C@@H]5CCCN5C(=O)[C@@H](NC(=O)OC)[C@@H](C)OC)[nH]4)cc3)cc2)[nH]1)[C@@H](C)OC` [AG_118_B] here?
Answer: 1 to 10 nM

Question: What about the CC50 at 3 days [2] of the same compound?
Answer: > 1 nM

Question: What about the EC50 ([3]; Hepatitis C virus, 72 h) of the same compound?
Answer: 0.001 to 0.1 nM

Question: Which results are given for `COC(=O)N[C@H](C(=O)N1CCC[C@H]1c1ncc(-c2ccc(-c3ccc(-c4cnc(C5C6CCC(C6)[C@@H]5C(=O)N[C@H](c5cccnc5)C(C)C)[nH]4)cc3)cc2)[nH]1)[C@@H](C)OC` (stereo partly drawn) [AA_267_A]?
Answer: EC50 ([1]; Hepatitis C virus, 72 h): 0.101 to 1 nM; CC50 at 3 days [2]: > 1 nM; EC50 ([3]; Hepatitis C virus, 72 h): 0.001 to 0.1 nM

Question: What does the source list for `COC(=O)N[C@H](C(=O)N1CCC[C@H]1c1ncc(-c2ccc(-c3ccc(-c4cnc(C5CCCC[C@H]5C(=O)NCc5cccnc5)[nH]4)cc3)cc2)[nH]1)C(C)C` (stereo partly drawn) [AA_113]?
Answer: EC50 ([1]; Hepatitis C virus, 72 h): 1 to 10 nM; CC50 at 3 days [2]: > 10 nM; EC50 ([3]; Hepatitis C virus, 72 h): 0.101 to 1 nM

Question: Which EC50 ([1]; Hepatitis C virus, 72 h) does the source give for `COC(=O)N[C@H](C(=O)N1CCC[C@H]1c1ccc(-c2ccc(-c3ccc(-c4cnc([C@@H]5CC6(CC6)CN5C(=O)[C@@H](NC(=O)OC)[C@@H](C)OC)[nH]4)cc3)cc2)[nH]1)[C@@H](C)OC` [AG_115] here?
Answer: 0.101 to 1 nM

Question: What about the CC50 at 3 days [2] of the same compound?
Answer: > 1 nM

Question: And the EC50 ([3]; Hepatitis C virus, 72 h)?
Answer: 0.001 to 0.1 nM

Question: Which EC50 [1] does the source give for `COC(=O)N[C@H](C(=O)N1CCCC1c1ccc(-c2ccc(-c3ccc(-c4cnc([C@@H]5CCCN5C(=O)[C@@H](NC(=O)OC)[C@@H](C)OC)[nH]4)cc3)cc2)[nH]1)[C@@H](C)OC` (single isomer, unassigned) [AG_072_A] here?
Answer: 0.001 to 0.1 nM

Question: What about the CC50 at 3 days [2] of the same compound?
Answer: > 1 nM

Question: And the EC50 [3]?
Answer: 0.001 to 0.1 nM

Question: With `COC(=O)N[C@H](C(=O)N1CCC[C@H]1c1ccc(-c2ccc(-c3ccc(-c4cnc([C@@H](NC(=O)[C@@H](NC(=O)OC)[C@@H](C)OC)C(C)C)[nH]4)cc3)cc2)[nH]1)C(C)C` [AG_102] as the compound, how does the EC50 ([1]; Hepatitis C virus, 72 h) read?
Answer: 1 to 10 nM

Question: What about the CC50 at 3 days [2] of the same compound?
Answer: > 1 nM

Question: What about the EC50 ([3]; Hepatitis C virus, 72 h) of the same compound?
Answer: 0.001 to 0.1 nM

Question: Which EC50 ([1]; Hepatitis C virus, 72 h) does the source give for `COC(=O)N[C@H](C(=O)N1CCC[C@H]1c1ncc(-c2ccc(-c3ccc(-c4cnc(C5C6CCC(C6)[C@@H]5C(=O)NCc5cccnc5C(F)(F)F)[nH]4)cc3)cc2)[nH]1)[C@@H](C)OC` (stereo partly drawn) [AA_255_A] here?
Answer: 10 to 100 nM

Question: And the CC50 at 3 days [2]?
Answer: > 1 nM

Question: What about the EC50 ([3]; Hepatitis C virus, 72 h) of the same compound?
Answer: 0.001 to 0.1 nM

Question: Which EC50 ([1]; Hepatitis C virus, 72 h) does the source give for `COC(=O)N[C@H](C(=O)N1CCC[C@H]1c1[nH]c(-c2ccc(-c3ccc(-c4cnc([C@@H]5CCCN5C(=O)[C@@H](NC(=O)OC)[C@@H](C)OC)[nH]4)cc3)cc2)c2c1COC2)C(C)C` [AG_077] here?
Answer: 0.001 to 0.1 nM

Question: And the CC50 at 3 days [2]?
Answer: > 5 nM

Question: And the EC50 ([3]; Hepatitis C virus, 72 h)?
Answer: 0.001 to 0.1 nM

Question: With `COC(=O)N[C@H](C(=O)N1CCCC1c1ccc(-c2ccc(-c3ccc(-c4cnc([C@@H]5COC(C)(C)N5C(=O)[C@@H](NC(=O)OC)C(C)C)[nH]4)cc3)cc2)[nH]1)C(C)C` (stereo partly drawn) [AG_022] as the compound, how does the EC50 ([1]; Hepatitis C virus, 72 h) read?
Answer: 10 to 100 nM

Question: What about the CC50 at 3 days [2] of the same compound?
Answer: > 10 nM

Question: What about the EC50 ([3]; Hepatitis C virus, 72 h) of the same compound?
Answer: 0.101 to 1 nM

Question: With `COC(=O)N[C@H](C(=O)N1CCC[C@H]1c1[nH]c(-c2ccc(-c3ccc(-c4[nH]c([C@@H]5CCCN5C(=O)[C@@H](NC(=O)OC)[C@@H](C)OC)c5c4COC5)cc3)cc2)c2c1COC2)[C@@H](C)OC` [AG_088_A] as the compound, how does the EC50 ([1]; Hepatitis C virus, 72 h) read?
Answer: 0.101 to 1 nM

Question: And the CC50 at 3 days [2]?
Answer: > 1 nM

Question: What about the EC50 ([3]; Hepatitis C virus, 72 h) of the same compound?
Answer: 0.001 to 0.1 nM

Question: For `COC(=O)N[C@H](C(=O)N1CCC[C@H]1c1ncc(-c2ccc(-c3ccc(-c4[nH]c([C@@H]5CCCN5C(=O)[C@@H](NC(=O)OC)C(C)C)c5c4COC5)cc3)cc2)[nH]1)C(C)C` [AG_060_B], which EC50 ([1]; Hepatitis C virus, 72 h) is on record?
Answer: 0.001 to 0.1 nM

Question: What about the CC50 at 3 days [2] of the same compound?
Answer: > 10 nM

Question: And the EC50 ([3]; Hepatitis C virus, 72 h)?
Answer: 0.001 to 0.1 nM

Question: With `COC(=O)NC(C(=O)N1CCC[C@H]1c1ncc(-c2ccc(-c3ccc(-c4cnc(C5CCCC[C@@H]5C(=O)N(NC(=O)OC)C(C)C)[nH]4)cc3)cc2)[nH]1)C1CCOCC1` (stereo partly drawn) [AA_109] as the compound, how does the EC50 ([1]; Hepatitis C virus, 72 h) read?
Answer: 10 to 100 nM

Question: And the CC50 at 3 days [2]?
Answer: > 100 nM

Question: What about the EC50 ([3]; Hepatitis C virus, 72 h) of the same compound?
Answer: 0.101 to 1 nM

Question: For `COC(=O)N[C@H](C(=O)N1CCC[C@H]1c1ncc(-c2ccc(-c3ccc(-c4cnc(C5C6CCC(C6)[C@@H]5C(=O)NCc5cccnc5)[nH]4)cc3)cc2)[nH]1)C(C)C` (stereo partly drawn) [AA_162_B], which EC50 ([1]; Hepatitis C virus, 72 h) is on record?
Answer: 1 to 10 nM

Question: What about the CC50 at 3 days [2] of the same compound?
Answer: > 1 nM

Question: What about the EC50 ([3]; Hepatitis C virus, 72 h) of the same compound?
Answer: 0.001 to 0.1 nM

Question: For `COC(=O)N[C@H](C(=O)N1CCC[C@H]1c1ncc(-c2ccc(-c3ccc(-c4cnc([C@@H]5[C@H]6CC[C@H](C6)[C@H]5C(=O)NN(C(=O)OC)C(C)C)[nH]4)cc3)cc2)[nH]1)C(C)C` [AA_299_ENDOA2], which EC50 ([1]; Hepatitis C virus, 72 h) is on record?
Answer: 10 to 100 nM

Question: What about the CC50 at 3 days [2] of the same compound?
Answer: > 1 nM

Question: What about the EC50 ([3]; Hepatitis C virus, 72 h) of the same compound?
Answer: 0.001 to 0.1 nM

Question: What does the source list for `COC(=O)N[C@H](C(=O)N1CCC[C@H]1c1ncc(-c2ccc(-c3ccc(-c4cnc([C@@H]5C6CCC(C6)[C@H]5C(=O)NCc5cccnc5C5CC5)[nH]4)cc3)cc2)[nH]1)C(C)C` (stereo partly drawn) [AA_234_B]?
Answer: EC50 ([1]; Hepatitis C virus, 72 h): 10 to 100 nM; CC50 at 3 days [2]: > 1 nM; EC50 ([3]; Hepatitis C virus, 72 h): 0.001 to 0.1 nM
